{"source": "patent US8575128B2", "about": "“Methods for transdifferentiation of body tissues” (priority 1999, dated 2013)", "key": {"[1]": {"system": "human melanoma cell line G-361", "test": "Transdifferentiation of G-361 melanoma cells in culture", "assay_type": "cell-based", "set-up": "Phenotypic changes in the cell population: dose or concentration left out as unconfirmed", "details": "7 days", "description": "A human melanoma cell line. G-361, was purchased from the American Type Culture Collection (ATCC catalog number CRL-1424, Manassas, Va.) in a cryopreserved state. Upon receipt, the tube containing the frozen cells was rapidly thawed in a 371C water bath by swirling the bottom ⅓ of the tube for less than 2 minutes. All subsequent steps were conducted using standard methods of sterile technique. The cells were transferred to a T-25 flask containing 5 ml of pre-warmed McCoy=s 5A modified medium (Life Technologies, Rockville, Md.) and incubated at 371 C in a humidified CO2 incubator. After approximately 24 hours, the original medium was removed and replaced with fresh medium and the cells allowed to grow until they reached approximately 70-80% confluency with the medium being replaced every 2-3 days as needed. At this point, the cells were subcultured into Leighton tubes at low cell densities using well known typsin-EDTA subculturing techniques. After subculturing, the cells were allowed to re-establish their growth for 48 hours prior to administration of drugs.\nFew cells resembled a normal melanocyte phenotype. […] The majority of the cells appeared to be epithelial in morphology. […] The microscopic phenotypic heterogeneity observed was compatible with karyotypic analysis provided by ATCC showing a heterogeneous population with regards to chromosome number.\nLater, beta-carotene in tetrahydrofuran was added to McCoy=s 5A modified medium to a final concentration of about 33 mg/ml with a final concentration of 0.5% THF. This supplemented medium was added to the Leighton tubes after removal of un-supplemented medium and was replaced every 2 days during the 7 clay experimental period. At the end of 7 days, the cultures were fixed in methanol and the cover slips were Giemsa stained.\nMethods: The melanoma cell line G-361, described in Example 1.4 above was used Guanosine was added to McCoy=s 5A modified medium to a final concentration of 3 mg/ml. This supplemented medium was added to the Leighton tubes after removal of unsupplemented medium and was replaced every 2 days during the 7 day experimental period. At the end of 7 days, the cultures were fixed in methanol and the cover slips were Giemsa stained.\nMethods: The melanoma cells line G-361, described in Example 14 above was used Guanosine was added to McCoy=s 5A modified medium to final concentration of 3 mg/ml. This supplemented medium was added to the Leighton tubes after removal of un-supplemented medium and was replaced every 2 days for 7 days. Beta-carotene in THF was added to McCoy=s 5A modified medium at a final concentration of 33 mg/ml with a final concentration of 0.5% THF. […]"}, "[2]": {"system": "melanophores and xanthophores", "details": "for Cells containing both melanosomes and pterinosomes (melanophore to xanthophore transdifferentiation), light microscopy: Gomori trichrome stained skin, zinc acetate 7 and 12 days; for Cells containing both melanosomes and pterinosomes (melanophore to xanthophore transdifferentiation), light microscopy / Time on feeding at which the animal died: substance sprinkled on food every other day; for Cells containing both melanosomes and pterinosomes (melanophore to xanthophore transdifferentiation), light microscopy / Colour of the animal by inspection: cGMP 22 days, GMP 67 days; for Identification as transdifferentiation agent by the assay: summary statement; for Direction of chromatophore transdifferentiation from macro observations and photographs of whole animals: fed as in Examples A-C", "source_text": "Larval Axolotls have an epidermis on a thin basement membrane, under which is a thick collagen layer (green when stained with Gomori trichrome for light microscopy.) Only 3 types of cells are present immediately below and slightly embedded in the collagen layer-(a) fibroblasts, which are generally fusiform and have a characteristic light and ultrastructural appearance, (b) melanophores, which contain numerous round or oval black melanosomes, as well as some premelanosomes, and (c) xanthophores, which, contain organelles known as pterinosomes. These appear as vacuoles in light microscopy and vacuoles with wispy or concentric layered material in electron microscopy. In general, melanosomes are normally found only in melanophores and pterinosomes in xanthophores.\nAll Axolotls were 3-5 cm in length at the beginning of the experiment and were obtained from the Indiana University Axolotl Colony, Bloomington, Ind.).\nTemperature was 22 °C with a 12 hour light/12 hour dark\nphotoperiod. Water was changed daily before feeding, and when the animals were removed from feeding an hour later. They were fed about every day. Every other day, the experimental substance was sprinkled on the beef or fish pellets. All experimental reagents were obtained from Sigma (St. Louis Mo.). […] For feeding, beef liver was placed on the raised bottom partially in and partially out of the water. This permitted the animal to sense the food in the water but prevented the cGMP sprinkled on the beef from washing away. […] For feeding the animals were transferred to smaller plastic containers (weighing canoes) which have one side sloped. The pellets were placed on the slope, partially in and partially out of the water. This permitted the animal to sense the food in the water but prevented the cGMP sprinkled on the pellet from washing away. Deer Park Spring Water (Breingsville, Pa.) was used exclusively.\nThe animals were observed about weekly under an Olympus SZ stereomicroscope and most were photographed prior to sacrifice or shortly (hours) after death. Animals were fixed in 10% Formalin and 4 mm punch biopsies of skin were processed routinely for histology (Gomori Trichrome) by Charles River Laboratories (Wilmington, Mass.). Slides were examined in an Olympus (Woodbury, N.Y.) BX40 microscope.\nThree animals (a control and two GMP fed animals) were biopsied with a 2 mm punch and fixed in Trump=s fixative for 24 hours, and processed routinely for electron microscopy. They were postfixed in 2% osmium tetroxide, dehydrated in a serials of alcohols and embedded in Epon-Araldite (1:1). Processing and photography were performed at the Electron Imaging Facility, Rutger=s University, Piscataway, N.J."}, "chromatophores": {"system": "chromatophores", "details": "literature reports (Frost; Thibaudeau and Holder; Bagnara); cited from earlier work"}, "melanocytes": {"system": "melanocytes", "details": "Dupin et al. 2000; cited from earlier work"}}, "note": "Values joined by “and” are separate entries in the source; they are usually repeats but may differ in a detail not shown here. Equal entries are not always repeated. “Also recorded” adds a separate entry of the source. Where no end group is shown, it is not given here.", "data": [{"compound": "CC1=C(/C=C/C(C)=C/C=C/C(C)=C/C=C/C=C(C)/C=C/C=C(C)/C=C/C2=C(C)CCCC2(C)C)C(C)(C)CCC1", "note": "[Beta-carotene, beta-carotene]", "values": [{"measurement": "Cell death compared with control cultures", "setting": "[1]; about 33 mg/ml in 0.5% THF", "value": "a large segment of the starting population died"}, {"measurement": "Mitotic figures in remaining cell population", "setting": "[1]; about 33 mg/ml in 0.5% THF", "value": "no mitotic figures observed"}, {"measurement": "Morphology of remaining cells", "setting": "[1]; about 33 mg/ml in 0.5% THF, Giemsa stain", "value": "most had triangular morphology and a large nucleus, consistent with neural cells, or were fusiform in shape, consistent with neuroglial or neurilemmal (Schwann) cells"}]}, {"compound": "Nc1nc2c(ncn2[C@@H]2O[C@H](COP(=O)(O)O)[C@@H](O)[C@H]2O)c(=O)[nH]1", "note": "[GMP, guanosine 5′-monophosphate]", "values": [{"measurement": "Cells containing both melanosomes and pterinosomes (melanophore to xanthophore transdifferentiation), light microscopy", "setting": "[2]", "value": "clear evidence of transdifferentiation by the presence of cells containing both pterinosomes and melanosomes; also recorded: transdifferentiating from a melanocyte into a xanthophore"}, {"measurement": "Colour of the animal by inspection", "setting": "[2]", "value": "markedly lighter by inspection and had a yellow hue"}, {"measurement": "Cells and organelles in skin, electron microscopy", "setting": "[2]; fed 67 days", "value": "many cells in which both melanosomes and pterinosomes were, present; also recorded: organelles which appeared to be hybrids of melanosomes and pterinosomes"}, {"measurement": "Identification as transdifferentiation agent by the assay", "setting": "[2]", "value": "transdifferentiation agents"}]}, {"compound": "CC(=O)[O-].CC(=O)[O-].[Zn+2]", "note": "[Zinc Acetate, reference compound]", "values": [{"measurement": "Cells containing both melanosomes and pterinosomes (melanophore to xanthophore transdifferentiation), light microscopy", "setting": "[2]", "value": "cells with both melanosomes and pterinosomes"}, {"measurement": "Time on feeding at which the animal died", "setting": "[2]", "value": "7 days and 12 days"}, {"measurement": "Identification as transdifferentiation agent by the assay", "setting": "[2]", "value": "transdifferentiation agents"}]}, {"compound": "Nc1nc2c(ncn2[C@@H]2O[C@@H]3COP(=O)(O)O[C@H]3[C@H]2O)c(=O)[nH]1", "note": "[cGMP, guanosine 3′,5′-cyclic monophosphate]", "values": [{"measurement": "Cells containing both melanosomes and pterinosomes (melanophore to xanthophore transdifferentiation), light microscopy", "setting": "[2]", "value": "presence of melanosomes and pterinosomes in several cells"}, {"measurement": "Colour of the animal by inspection", "setting": "[2]", "value": "lighter by inspection"}, {"measurement": "Time on feeding at which the animal died", "setting": "[2]", "value": 22, "unit": "days"}, {"measurement": "Identification as transdifferentiation agent by the assay", "setting": "[2]", "value": "transdifferentiation agents"}]}, {"compound": "Nc1cc[nH]c(=O)n1", "note": "[cytosine]", "values": [{"measurement": "Direction of chromatophore transdifferentiation from macro observations and photographs of whole animals", "setting": "[2]", "value": "transdifferentiates xanthophores to melanophores"}]}, {"compound": "Nc1nc2c(ncn2[C@@H]2O[C@H](CO)[C@@H](O)[C@H]2O)c(=O)[nH]1", "note": "[guanosine]", "values": [{"measurement": "Transdifferentiation of Axolotl chromatophores", "setting": "chromatophores", "value": "acted as a transdifferentiation agent; also recorded: transdifferentiate from one pigmented cell type to another"}, {"measurement": "Direction of chromatophore transdifferentiation from macro observations and photographs of whole animals", "setting": "[2]", "value": "transdifferentiate melanophores to xanthophores"}, {"measurement": "Phenotypic changes in the cell population", "setting": "[1]; Giemsa stain", "value": "many cells with an increased nuclear to cytoplasmic ratio; also recorded: increased number of triangular cells consistent with neural phenotypes"}]}, {"compound": "O[C@H]1[C@H](O)[C@@H](O)[C@H](O)[C@@H](O)[C@H]1O", "note": "[myo-inositol]", "values": [{"measurement": "Direction of chromatophore transdifferentiation from macro observations and photographs of whole animals", "setting": "[2]", "value": "transdifferentiate melanophores to xanthophores"}, {"measurement": "Identification as transdifferentiation agent by the assay", "setting": "[2]", "value": "transdifferentiation agents"}]}, {"compound": "Cl.Cl.Cl.Cl.NCCNCCNCCN", "note": "[trien, triethylenetetramine tetrahydrochloride]", "values": [{"measurement": "Direction of chromatophore transdifferentiation from macro observations and photographs of whole animals", "setting": "[2]", "value": "transdifferentiate melanophores to xanthophores"}]}, {"compound": "Endothelian 3: Factor reported by Dupin et al. to induce conversion of melanocytes into glial cells (CTCFTYKDKECVYYCHLDIIW; ends and bridges not checked; cysteine pairing not given here; UniProt P14138 97-117, looked up)", "values": [{"measurement": "Conversion of melanocytes into glial cells", "setting": "melanocytes", "value": "induce the conversion of melanocytes into glial cells"}]}]}
